# Assay results reported in patent US20040191842A1, “Chemopreventive and therapeutic aspects of polyphenolic compositions and assays” (Medical College of Georgia Research Institute, Inc., priority 2002, published 2004).
# How the values were obtained:
# [1] = tested on: OSC2 cells; experiment: Cell growth assay, OSC2 cells; assay type: cell-based, human; details: 50 μM EGCG, day four
# Protocol: Cell growth assay. Cells (2×10^5) were seeded in each T25 culture flask with 5 ml DMEM/F12 medium for 48 hours. The treatments were started with 50 μM EGCG for 24 hours, 48 hours and 96 hours. At each time point, the cell numbers were counted using a hemacytometer with the presence of Trypan blue.
# [2] = tested on: aged normal human primary epidermal keratinocytes; experiment: MTT assay (SDH activity), aged keratinocytes; assay type: cell-based
# Protocol: Culturing normal human epithelial cells. The pooled normal human primary epidermal keratinocytes were purchased from Cambrex (Baltimore, Md.) and sub-cultured in the specific growth media provided by the manufacturer (KGM-2). […] Exponentially growing keratinocytes were treated and harvested in their early passages (2-3 passages).
# [3] = tested on: aged normal human primary epidermal keratinocytes; experiment: BrdU incorporation assay, aged keratinocytes; assay type: cell-based; details: EGCG 15-50 μM, 15-day and 20-day keratinocytes
# Protocol: Culturing normal human epithelial cells. The pooled normal human primary epidermal keratinocytes were purchased from Cambrex (Baltimore, Md.) and sub-cultured in the specific growth media provided by the manufacturer (KGM-2). […] Exponentially growing keratinocytes were treated and harvested in their early passages (2-3 passages). […] Analysis of DNA synthesis using the BrdU incorporation method. The BrdU cell proliferation kit was purchased from Oncogene Research Products (Boston, Mass.). […] Experiments were repeated three times in triplicate for each experiment.
# [4] = tested on: OSC-4 cells; experiment: Intracellular ROS levels (DFDA assay), OSC-4 cells; assay type: cell-based, human; details: for intracellular ROS levels vs control: 120 minute time point
# Protocol: (§1) Measurement of intracellular ROS levels. The ROS assay measures the accumulation of intracellular ROS levels. The non-fluorescent dye DFDA passively diffuses into cells, where the acetates are cleaved by intracellular esterases. […] Thus, values of the fluorescence in the cell cultures are constantly rising in this assay. Cells (1.5×10^4 cells/well) were incubated with Hallam's physiological saline (HPS) containing DFDA (10 μM) in a 96-well microplate for 30 minutes at 37° C. After the incubation, cells were washed three times with HPS and then incubated with HPS containing EGCG (15-200 μM) or diamide (5 mM) for the indicated time periods. The intracellular ROS levels were measured by using a fluorescence plate reader (BIO-TEK FL600, Bio-Tek Instruments, Inc., Winooski, Vt.), at an excitation wavelength of 485 nm and an emission wavelength of 530 nm.
# as §1, with “assay (DFDA assay)” for “assay”, “dye dichlorofluorescein diacetate (DFDA)” for “dye DFDA”, “this assay due to the accumulation of ROS.” for “this assay.”, “EGCG (50-200” for “EGCG (15-200”, “indicated times.” for “indicated time periods.”
# [5] = tested on: SOD; experiment: SOD activity assay in cell lysates; assay type: cell-based, human; details: 50 μM EGCG, 30 minutes; NHEK, OSC-2, OSC-4
# Protocol: Assays for SOD and catalase activities. Cells (1×10^6 cells/well) were incubated with or without EGCG (50 μM) in FilterCap 50 ml flasks (Nagel Nunc International, Rochester, N.Y.) for 30 minutes at 37° C. After the incubation, cells were harvested and disrupted in 100 μl of 10 mM Tris-HCl (pH 7.4) containing 0.1%(v/v) Triton X-100, 10 μg/ml leupeptin, 10 μg/ml pepstatin A and 100 mM phenylmethylsulfonyl fluoride by three cycles of freezing/thawing. After centrifugation at 17,000×g for 20 minutes at 4° C., the supernatants were used for SOD and catalase assays using the SOD Assay Kit-WST (Dojindo Molecular Technologies, Inc., Gaithersburg, Md.) and the AMPLEX Red Catalase Assay Kit (Molecular Probes), respectively. The activities of SOD and catalase were calibrated using a standard curve prepared with purified human SOD and catalase. The activities of SOD and catalase were expressed as units (U)/10^6 cells.
# Assays for SOD and catalase activities. Cells (10^5 cells/well) were incubated with or without EGCG (50 μM) in 24-well culture plates for desirable time periods at 37° C. After the incubation, cells were harvested and disrupted in 100 μl of 10 mM Tris-HCl (pH 7.4) containing 0.1% (v/v) Triton ×-100, 10 μg/ml leupeptin, 10 μg/ml pepstatin A and 100 mM PMSF by three cycles of freezing/thawing. […] The activities of SOD and catalase were expressed as units (U)/10^6 cells.
# [6] = tested on: caspase 14; experiment: Apoptosis macroarray, caspase 14 mRNA in NHEK; assay type: cell-based, human
# Protocol: (§2) To identify additional factors those suppress EGCG -induced apoptosis and facilitate cell differentiation in NHEK, exponentially growing NHEK (Cambrex, Baltimore, Md.) were exposed to 100 μM EGCG for 0, 2, 6 and 24 hours, prior to total RNA isolation using the Qiagen RNeasy mini kit (Valencia, Calif.), which was followed by RT-PCR labeling and hybridization with the Human Apoptosis Macroarray membrane (Sigma-Genosys, The Woodlands, Tex.). Total cell lysates also were collected following a variety of EGCG treatments. The protein levels for caspase 14 and p21 were determined by immuno-blotting using antibodies specific for caspase 14 and p21 (Santa Cruz Biotechnology, Santa Cruz, Calif.).
# (§3) Normal human epidermal keratinocytes (NHEK; Cambrex), and oral squamous cell carcinoma (OSC2) cells, originally from gingival tissue, were compared. Exponentially growing cells were exposed to 50 or 100 μM EGCG for 0 hours, 2 hours, 6 hours or 24 hours. Cells were harvested for total RNA, which was examined by apoptosis macroarrays (Sigma Genosys), followed by phosphorimagery and data analysis (GeneSpring). Protein production of expressed genes was confirmed by Western blotting of whole cell lysates.
# [7] = tested on: p21/WAF1; experiment: Apoptosis macroarray, p21/WAF1 mRNA in NHEK; assay type: cell-based, human; details: 100 μM EGCG
# Protocol: as §2, §3
compound,measurement,setting,value
"O=C(O[C@@H]1Cc2c(O)cc(O)cc2O[C@@H]1c1cc(O)c(O)c(O)c1)c1cc(O)c(O)c(O)c1 [EGCG, (−)-epigallocatechin-3-gallate]",cell number compared to controls,[1],50%
same,SDH activity and BrdU incorporation,[2]; EGCG concentrations higher than 100 μM,consistently induced both SDH activity and BrdU incorporation
same,"activation of succinate dehydrogenase (SDH), MTT assay","[2]; keratinocytes 25 days in culture, 24 h treatment",up to 37 fold
same,BrdU incorporation,[3],slight negative impact on BrdU incorporation
same,intracellular ROS levels vs controls,"[4]; 50 μM EGCG, 60 minute exposure",remained comparable to the controls
same,intracellular ROS levels vs control,[4]; 50 μM EGCG,ROS levels identical to the control cells
same,intracellular ROS levels vs control,[4]; 200 μM EGCG,remained higher than the control cells
same,time at which rate of ROS production peaked,[4]; EGCG,60 min
same,H2O2 concentration producing ROS equivalent to 200 μM EGCG,[4]; first hour,100 µM
same,SOD activity,[5],did not alter SOD activity
same,caspase 14 gene expression upregulated,[6]; 100 μM EGCG (Example 10),at least 2 fold
same,caspase 14 mRNA expression above control,"[6]; 100 μM EGCG, 24 hours",approximately three
same,"p21 mRNA level, of untreated control",[7]; 2 hours,70.3%
same,"p21 mRNA level, of untreated control",[7]; 6 hours,50.4%
same,"p21 mRNA level, of control",[7]; 24 hours,32.7%
